Experimental data published in patent US6375928B1, “Neutrophil stimulating peptides” (Peptech Limited, priority 1990, dated 2002).
Where no end group is shown, it is not given here. The star is where a group is joined. Acm = CC(=O)NC*

Key:
Format in all cases: cell-based
[1] = test system: monocytes; assay: Priming of monocytes for a respiratory burst (chemiluminescence); settings: with fMLP; 10^6 monocytes/tube/ml; 419 100 μg/10^6 monocytes, 50 U TNF or no pre-treatment, 30 min pre-incubation 37° C.
Protocol: Peptide 419 (SEQ ID NO. 18) was assayed for its ability to prime monocytes for a respiratory burst. This assay was conducted essentially as described above for neutrophils except that the cells were cultured for 24 hours prior to assay.

[2] = test system: neutrophils; assay: Chemotactic properties, neutrophil migration under agarose; settings: towards agent well; 1 × 10^−7 M fMLP, peptide, or 10^3 U/ml TNFα; 2×10^5 neutrophils
Protocol: 5 μl of neutrophils (2×10^5 cells) were added to the inner well, with chemotactic agent or control medium added to the outer wells. Migration at various time intervals was then measured.

[3] = test system: human neutrophils; assay: Chemiluminescence assay: priming of neutrophils for F-met-leu-phe response (respiratory burst); settings: for lucigenin dependent chemiluminescence, peak of response: 20 min pretreatment before f-met-leu-phe; for Chemiluminescence, neutrophil respiratory burst: 100 ug peptide, second, Table 4; for chemiluminescence (repeat experiment, Table 3): peptide + fMLP; for Chemiluminescence mean + sem: priming neutrophils for respiratory burst
Protocol: Purified human neutrophils were pretreated with peptide for 20 minutes before the addition of f-met-leu-phe. The lucigenin dependent chemiluminescence response, which reflects superoxide production, was then measured. The results obtained are set out in Table 2 and are expressed as mV of lucigenin dependent chemiluminescence and represent the maximal cell activity attained.
Results are expressed as mV of lucigenin dependent chemiluminescence and represent peak of response i.e. the maximal cell activity attained.

[4] = test system: neutrophils; assay: Neutrophil random migration out of wells in agarose
Text: Migration of cells is an important property by which cells reach infection sites. Their accumulation at these sites is also dependent on the capacity of inflammatory mediators to inhibit their migration out of the sites.

[5] = test system: human neutrophils; assay: Chemiluminescence assay: priming of neutrophils for F-met-leu-phe response (respiratory burst); settings: peptide alone
[6] = test system: neutrophils; assay: Superoxide formation, cytochrome reduction assay
Text: The effect of peptides 308 and 309 (SEQ ID NOs. 10 & 11) on superoxide formation was examined by the cytochrome reduction assay, according to the procedure of Ferrante, 1989 (Infection and Immunity), 57: 2115-2122). The results, expressed as n moles of O2/5×10^5 cells as set out in Table 6.

[7] = test system: neutrophils; assay: Neutrophil degranulation: Vitamin B12 binding protein release (specific granules); settings: for Vitamin B12 Binding Protein, Exp. 1 / Vitamin B12 Binding Protein, Exp. 2 / Vitamin B12 Binding Protein, Exp. 3 / Vitamin B12 Binding Protein, Exp. 4: in the presence of CytoB
[8] = test system: neutrophils; assay: Neutrophil degranulation: β-glucuronidase release (azurophilic granules); settings: for β-glucuronidase release, Exp. 1 / β-glucuronidase release, Exp. 2 / β-glucuronidase release, Exp. 3 / β-glucuronidase release, Exp. 4: in the presence of CytoB
[9] = peptide 100 μg/10^6 cells (or HBSS) + fMLP
[10] = peptide 100 μg/10^6 cells, no fMLP

## CSCC[C@H](NC=O)C(=O)N[C@@H](CC(C)C)C(=O)N[C@@H](Cc1ccccc1)C(=O)O [fMLP, N-formyl-L-methionyl-L-leucyl-L-phenylalanine, reference compound]
[1]
  Peak mV Chemiluminescence, Mean ± S.D.: 109.0 ± 7.071 mV
  Peak mV Chemiluminescence, experiment 2: 114.0 mV
[2]
  Migration distance at 1.5 h, Agent: 1.46 mm
  Migration distance at 2.5 h, Agent: 2.45 mm

## A E G Q L Q W L N R R A N A L L A N G (AEGQLQWLNRRANALLANG) [Peptide 307]
[3]; peptide 1 μg/10^6 cells
  lucigenin dependent chemiluminescence, peak of response: 0.35 mV
[3]; peptide 10 μg/10^6 cells
  lucigenin dependent chemiluminescence, peak of response: 0.37 mV
[3]; peptide 100 μg/10^6 cells
  lucigenin dependent chemiluminescence, peak of response: 0.42 mV

## A K P W Y E P I Y L (AKPWYEPIYL) [Peptide 275]
[3]; peptide 1 μg/10^6 cells
  lucigenin dependent chemiluminescence, peak of response: 0.99 mV
[3]; peptide 10 μg/10^6 cells
  lucigenin dependent chemiluminescence, peak of response: 0.69 mV
[3]; peptide 100 μg/10^6 cells
  lucigenin dependent chemiluminescence, peak of response: 0.43 mV
[3]; peptide 500 μg/10^6 cells
  lucigenin dependent chemiluminescence, peak of response: 0.80 mV

## A V S Y Q T K V N L L (AVSYQTKVNLL) [Peptide 396]
[3]
  Chemiluminescence, neutrophil respiratory burst: 0.70 mV

## HVLLTHTISRIAVSYQTKVNLL (HVLLTHTISRIAVSYQTKVNLL) [Peptide 309]
[4]
  effect on neutrophil random migration (in words): potent inhibitors of neutrophil migration
[4]; 10 μg/10^6 cells
  Inhibition of Migration: 0%
[4]; 100 μg/10^6 cells
  Inhibition of Migration: 100%
[5]; 10 μg/10^6 cells
  chemiluminescence (repeat experiment, Table 3): 0.31 mV
[5]; 100 μg/10^6 cells
  chemiluminescence (repeat experiment, Table 3): 0.69 mV
[3]
  neutrophil stimulating activity / stimulation of neutrophil respiratory burst (in words): neutrophil stimulating activity
  priming of neutrophils for the respiratory burst associated with f-met-leu-phe treatment (in words): found to prime human neutrophils for the respiratory burst
  Chemiluminescence, neutrophil respiratory burst: 4.70 mV
[3]; peptide 1 μg/10^6 cells
  lucigenin dependent chemiluminescence, peak of response: 0.38 mV
[3]; peptide 10 μg/10^6 cells
  lucigenin dependent chemiluminescence, peak of response: 0.98 mV
[3]; peptide 100 μg/10^6 cells
  lucigenin dependent chemiluminescence, peak of response: 13.44 mV
[3]; 10 μg/10^6 cells
  chemiluminescence (repeat experiment, Table 3): 2.46 mV
[3]; 100 μg/10^6 cells
  chemiluminescence (repeat experiment, Table 3): 12.84 mV
[6]; peptide + fMLP, 10 μg/5 × 10^5 cells
  superoxide formation: 3.87 n moles of O2/5×10^5 cells
[6]; peptide + fMLP, 100 μg/5 × 10^5 cells
  superoxide formation: 5.14 n moles of O2/5×10^5 cells
[6]; peptide alone, 10 μg/5 × 10^5 cells
  superoxide formation: 0.62 n moles of O2/5×10^5 cells
[6]; peptide alone, 100 μg/5 × 10^5 cells
  superoxide formation: 2.30 n moles of O2/5×10^5 cells
[2]
  Migration distance at 1.5 h, Agent: 0.53 mm
  Migration distance at 2.5 h, Agent: 0.68 mm

## K G Q G Cys (Acm) P S T H V L L T H T (KGQGC(Acm)PSTHVLLTHT) [Peptide 462, reference compound]
[3]
  priming of neutrophils for the respiratory burst associated with f-met-leu-phe treatment (in words): does not possess the biological activity of those peptides
[3]; 1 μg peptide
  Chemiluminescence mean + sem: 3.1 ± 0.5 mV
[3]; 10 μg peptide
  Chemiluminescence mean + sem: 4.8 ± 0.7 mV
[3]; 100 μg peptide
  Chemiluminescence mean + sem: 4.8 ± 0.5 mV

## LFKGQGCPSTHVLLTHTISRI (LFKGQGCPSTHVLLTHTISRI) [Peptide 304]
[4]
  effect on neutrophil random migration (in words): chemokinetic
[4]; 10 μg/10^6 cells
  Inhibition of Migration: −43%
[4]; column headed 0 μg/10^6 cells
  Inhibition of Migration: −16%
[5]; 10 μg/10^6 cells
  chemiluminescence (repeat experiment, Table 3): 0.36 mV
[5]; 100 μg/10^6 cells
  chemiluminescence (repeat experiment, Table 3): 0.64 mV
[7]; absence of fMLP
  release from specific granules (Vitamin B12 binding protein), in words: no effect
[7]; [9]
  Vitamin B12 Binding Protein, Exp. 1: 43.76
  Vitamin B12 Binding Protein, Exp. 2: 35.60
  Vitamin B12 Binding Protein, Exp. 3: 59.15
  Vitamin B12 Binding Protein, Exp. 4: 37.12
[7]; [10]
  Vitamin B12 Binding Protein, Exp. 1: 11.40
  Vitamin B12 Binding Protein, Exp. 2: 10.82
  Vitamin B12 Binding Protein, Exp. 3: 13.06
  Vitamin B12 Binding Protein, Exp. 4: 8.42
[7]; presence of fMLP
  release from specific granules (Vitamin B12 binding protein), in words: enhanced release from specific granules
[3]
  neutrophil stimulating activity / stimulation of neutrophil respiratory burst (in words): neutrophil stimulating activity
  priming of neutrophils for the respiratory burst associated with f-met-leu-phe treatment (in words): found to prime human neutrophils for the respiratory burst
[3]; peptide 1 μg/10^6 cells
  lucigenin dependent chemiluminescence, peak of response: 0.18 mV
[3]; peptide 10 μg/10^6 cells
  lucigenin dependent chemiluminescence, peak of response: 0.43 mV
[3]; peptide 100 μg/10^6 cells
  lucigenin dependent chemiluminescence, peak of response: 2.56 mV
[3]; peptide 500 μg/10^6 cells
  lucigenin dependent chemiluminescence, peak of response: 2.76 mV
[3]; 10 μg/10^6 cells
  chemiluminescence (repeat experiment, Table 3): 0.91 mV
[3]; 100 μg/10^6 cells
  chemiluminescence (repeat experiment, Table 3): 6.97 mV
[8]; absence of fMLP
  release from azurophilic granules (β-glucuronidase), in words: no effect
[8]; [9]
  β-glucuronidase release, Exp. 1: 26.95%
  β-glucuronidase release, Exp. 2: 36.43%
  β-glucuronidase release, Exp. 3: 35.34%
  β-glucuronidase release, Exp. 4: 36.65%
[8]; [10]
  β-glucuronidase release, Exp. 1: 3.63%
  β-glucuronidase release, Exp. 2: 3.14%
  β-glucuronidase release, Exp. 3: 2.52%
  β-glucuronidase release, Exp. 4: 9.82%
[8]; presence of fMLP
  release from azurophilic granules (β-glucuronidase), in words: not azurophilic granules
[2]
  Migration distance at 1.5 h, Agent: 0.47 mm
  Migration distance at 2.5 h, Agent: 0.72 mm

## L R D N Q L V V P S E G L Y L I (LRDNQLVVPSEGLYLI) [Peptide 302]
[3]; peptide 1 μg/10^6 cells
  lucigenin dependent chemiluminescence, peak of response: 0.16 mV
[3]; peptide 10 μg/10^6 cells
  lucigenin dependent chemiluminescence, peak of response: 0.18 mV
[3]; peptide 100 μg/10^6 cells
  lucigenin dependent chemiluminescence, peak of response: 0.29 mV

## L S A E I N R P D Y L D F A E S G Q V (LSAEINRPDYLDFAESGQV) [Peptide 305]
[3]; peptide 1 μg/10^6 cells
  lucigenin dependent chemiluminescence, peak of response: 0.27 mV
[3]; peptide 10 μg/10^6 cells
  lucigenin dependent chemiluminescence, peak of response: 0.36 mV
[3]; peptide 100 μg/10^6 cells
  lucigenin dependent chemiluminescence, peak of response: 0.24 mV

## L S A I K S P C Q R E T P E G A (LSAIKSPCQRETPEGA) [Peptide 303]
[3]; peptide 1 μg/10^6 cells
  lucigenin dependent chemiluminescence, peak of response: 0.23 mV
[3]; peptide 10 μg/10^6 cells
  lucigenin dependent chemiluminescence, peak of response: 0.17 mV
[3]; peptide 100 μg/10^6 cells
  lucigenin dependent chemiluminescence, peak of response: 0.22 mV

## L T H T I S R I A (LTHTISRIA) [Peptide 393]
[3]
  Chemiluminescence, neutrophil respiratory burst: 0.31 mV

## P S A H V L L T H T I (PSAHVLLTHTI) [Peptide 418]
[3]
  neutrophil stimulating activity / stimulation of neutrophil respiratory burst (in words): neutrophil stimulating activity

## S R I A V S Y Q T K V N L L (SRIAVSYQTKVNLL) [Peptide 394]
[3]
  Chemiluminescence, neutrophil respiratory burst: 0.33 mV

## T I S R I A V S Y Q T (TISRIAVSYQT) [Peptide 323]
[3]
  priming of neutrophils for the respiratory burst associated with f-met-leu-phe treatment (in words): not found to be capable of priming neutrophils
[3]; peptide 1 μg/10^6 cells
  lucigenin dependent chemiluminescence, peak of response: 0.23 mV
[3]; peptide 10 μg/10^6 cells
  lucigenin dependent chemiluminescence, peak of response: 0.17 mV
[3]; peptide 100 μg/10^6 cells
  lucigenin dependent chemiluminescence, peak of response: 0.47 mV

## V A H V V A N P Q A E G Q L (VAHVVANPQAEGQL) [Peptide 306]
[3]; peptide 1 μg/10^6 cells
  lucigenin dependent chemiluminescence, peak of response: 0.27 mV
[3]; peptide 10 μg/10^6 cells
  lucigenin dependent chemiluminescence, peak of response: 0.35 mV
[3]; peptide 100 μg/10^6 cells
  lucigenin dependent chemiluminescence, peak of response: 0.23 mV

## V R S S S R T P S D K P V A H V V A (VRSSSRTPSDKPVAHVVA) [Peptide 301]
[3]; peptide 1 μg/10^6 cells
  lucigenin dependent chemiluminescence, peak of response: 0.93 mV
[3]; peptide 10 μg/10^6 cells
  lucigenin dependent chemiluminescence, peak of response: 0.74 mV
[3]; peptide 100 μg/10^6 cells
  lucigenin dependent chemiluminescence, peak of response: 0.55 mV
[3]; peptide 500 μg/10^6 cells
  lucigenin dependent chemiluminescence, peak of response: 1.10 mV
